Data as given in patent publication US7618945B2, “Heteroaryl peptidomimetics as thrombin receptor antagonists” (Janssen Pharmaceutica, N.V., priority 2002, dated 2009).

Key:
[1] = system: gel-filtered platelets; assay: Inhibition of thrombin-induced gel-filtered platelet aggregation; assay type: cell-based; details: aggregation initiated by human α-thrombin 0.113 nM-0.187 nM, OD 650 at 0 and 5 min
Protocol: (§1) In Vitro Inhibition Of Thrombin- and SFLLRN-NH2-Induced Gel-Filtered Platelet Aggregation Assay
(§2) Platelet Rich Plasma concentrate (Biological Specialties, Inc) is gel filtered (Sepharose 2B, Pharmacia) in Tyrode's buffer (140 mM NaCl, 2.7 mM KCl, 12 mM NaHCO3, 0.76 mM Na2HPO4, 5.5 mM dextrose, 5.0 mM Hepes, and 2 mg/ml BSA @ pH 7.4). The gel-filtered platelets are diluted with Tyrode's buffer (143,000 platelets/μl, final platelet count per well), compound solution in buffer, and 2 mM CaCl2 in a 96 well plate. Platelet aggregation is initiated by the addition of human α-thrombin (American Diagnostica, 0.113 nM-0.187 nM) or SFLLRN-NH2 (2 μM) shown to achieve 80% aggregation (0.015-0.025 NIH U/ml, 0.113 nM-0.187 nM). The assay plate is stirred constantly. Platelet aggregation is monitored by intermittently placing the plate in a microplate reader (Molecular Devices) to read optical density ([…], ΔSOFT) at 0 and 5 minutes after the thrombin addition. Aggregation was calculated to be the decrease in optical density between the time 0 and 5 minute measurements. All samples were tested in duplicate wells on the same plate.
(§3) Table 3 contains IC50 values (μM) of the compounds against platelet aggregation stimulated by thrombin and IC50 values (μM) in a thrombin receptor (PAR-1) binding assay.

[2] = system: gel-filtered platelets; assay: Inhibition of SFLLRN-NH2-induced gel-filtered platelet aggregation; assay type: cell-based; details: aggregation initiated by SFLLRN-NH2 (2 μM), OD 650 at 0 and 5 min
Protocol: as §1, §2

[3] = molecular target: T1, thrombin receptor (PAR-1) (Homo sapiens, UniProt P25116); assay: In vitro thrombin receptor binding assay (CHRF membranes); details: tritiated 721-40 (Ser-pFPhe-Har-Leu-Har-Lys-Tyr-NH2), 30 min incubation
T1 construct: CHRF membranes (Jones, Biochim. Biophys. Acta 1992, 1136, 272) are thawed from −70° C; endogenous in cells; host or cells: CHRF cell membranes (CHRF-288 megakaryoblastic line, per the cited Jones 1992)
T1 sequence (P25116 22-425): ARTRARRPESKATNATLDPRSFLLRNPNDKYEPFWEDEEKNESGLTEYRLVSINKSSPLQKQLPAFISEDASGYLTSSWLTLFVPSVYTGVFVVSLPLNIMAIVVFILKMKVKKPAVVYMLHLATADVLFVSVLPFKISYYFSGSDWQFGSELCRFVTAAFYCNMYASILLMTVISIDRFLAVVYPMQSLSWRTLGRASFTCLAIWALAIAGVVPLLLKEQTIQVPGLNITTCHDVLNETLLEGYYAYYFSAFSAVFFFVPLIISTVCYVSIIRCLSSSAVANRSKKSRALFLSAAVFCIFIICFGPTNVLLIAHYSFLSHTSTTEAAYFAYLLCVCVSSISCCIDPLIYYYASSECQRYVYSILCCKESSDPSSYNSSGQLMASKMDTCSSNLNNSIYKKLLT
Protocol: In Vitro Thrombin Receptor Binding Assay
CHRF membranes (Jones, Biochim. Biophys. Acta 1992, 1136, 272) are thawed from −70° C., centrifuged at maximum speed for 5 min, washed twice with binding buffer (50 mM HEPES containing 5 mM MgCl2 and 0.1% BSA), and re-suspended in binding buffer ([…]). 100 μL of membranes are added to the 24-Wallac plates and delivered to the Tomtech apparatus. In a typical experiment, 6 μL of samples (from a 125 μg/mL intermediary plate, 20% DMSO) and 44 μL buffer are delivered to the plates (final conc. of compounds is 3.7 μg/mL, 0.6% DMSO). Similarly, 6 μL 20% DMSO and 44 μL buffer are delivered to both column 1 (NSB) and column 12 (TB). 10 μL Ser-pFPhe-Har-Leu-Har-Lys-Tyr-NH2 (721-40; 500 μM in deionized water) is added to column 1. 50 μL tritiated 721-40 (specific activity 46 Ci/mmol) is added to all the wells. The plates are mixed well for 20 seconds, incubated for 30 min, and then harvested with 10 mM HEPES/138 mM NaCl using the Skatron harvester. The filters (GF/C Brandel FPXLR 296) are presoaked 3 h in 0.5% polyethylenimine in HEPES/0.1M N-acetylglucosamine) are set in saran wrap and dried for 3 min in the microwave, and placed in sample bags (Wallac 1450-432). 4.5 mL scintillation fluid (Wallac, Betaplate Scint 1205-440) is added. The bags are sealed, placed in filter cassettes (Wallac 1450-104), and analyzed on the microbeta counter.
as §3

Row | SMILES | IC50 ([1]; Platelet) [µM] | IC50 ([2]; Platelet) [µM] | IC50 [3] [µM] | IC50 [1] [µM] | IC50 [2] [µM]
1 | N=C(N)NCCC[C@H](NC(=O)OCc1ccccc1)C(=O)N[C@@H](Cc1ccccc1)C(=O)Nc1ccc2c(CN3CCCC3)cn(Cc3ccc(F)cc3)c2c1 [Compound 19] | 18.7 | 11.1 | 2.4 |  | 
2 | N=C(N)NCCCC(NC(=O)Cc1ccccc1)C(=O)NC(Cc1ccccc1)C(=O)Nc1ccc2c(c1)c(CN1CCCC1)cn2Cc1ccc(F)cc1 (centres unmarked) [Compound 17, 5-Guanidino-2-phenylacetylamino-pentanoic acid {1-[1-(4-fluoro-benzyl)-3-pyrrolidin-1-ylmethyl-1H-indol-5-ylcarbamoyl]-2-phenyl-ethyl}-amide] |  |  | 10.4 | 44.5 | 9.8
3 | CCCNCc1cn(Cc2ccc(F)cc2)c2ccc(NC(=O)[C@@H](Cc3ccccc3)NC(=O)[C@@H](CCCNC(=N)N)NC(=O)OC3c4ccccc4-c4ccccc43)cc12 [Compound 1] | 51.6 | 43.7 |  |  | 
4 | CC(=O)N[C@@H](CCCNC(=N)N)C(=O)N[C@@H](CC1CCCCC1)C(=O)Nc1ccc2c(CN3CCCC3)cn(Cc3ccc(F)cc3)c2c1 [Compound 21] | 4.7 | 3.2 | 10.7 |  | 
